US20250108048A1, “STING AGONIST COMPOUNDS AND CONJUGATES” (SUTRO BIOPHARMA, INC., priority 2023, published 2025)
Where two headings read alike, the source gives them in different places.

Columns and labels:
[1] = test system: TROP2 positive NCI-H292 Cells; test: Cytokine release from cancer cells (MSD); format: cell-based, human; settings: 120 hours; for EC50: Homo sapiens
Protocol: The cell supernatant was collected and IP-10 and IL-6 released in the cell culture medium was measured using Streptavidin single spot 96 well plates, compatible human antibody pairs, and calibrating solutions commercially available from MesoScale Discovery. Raw data generated by the Meso Scale Discovery (MSD®) SQ120 plate reader was imported into MSD Discovery Workbench software. Unknown sample values were interpolated from standard curves by the software and imported into Graphpad Prism. Each cytokine level was fitted with non-linear regression analysis, using log (agonist) vs. response, variable slope, 4-parameter fit equation in GraphPad Prism.

hSTING-HAQ haplotype = target: T1, hSTING-HAQ haplotype (Homo sapiens, UniProt Q86WV6, G230A/H232R/R293Q/R71H); test: THP-1-Dual reporter assay (endogenous hSTING-HAQ); format: cell-based; settings: THP-1-Dual cells (hSTING-HAQ), 24 hours
T1 construct: host or cells: THP-1-Dual

hSTING H232 [2] = target: T2, hSTING H232 (Homo sapiens, UniProt Q86WV6); test: THP1-Dual KI-hSTING-H232 reporter assay (IRF pathway, secreted Lucia luciferase); format: cell-based; set-up: host or cells: THP1-Dual KI-hSTING-H232 (from THP1-Dual KO-STING); settings: THP1-Dual KI-hSTING-H232 cells, 24 hours; read-out: Reporter assay EC50 (nM) THP-1-H232
hSTING-R232 = target: T3, hSTING-R232 (Homo sapiens, UniProt Q86WV6, H232R); test: THP1-Dual KI-hSTING-R232 reporter assay (IRF pathway, secreted Lucia luciferase); format: cell-based; settings: THP1-Dual KI-hSTING-R232 cells, 24 hours; read-out: Reporter assay EC50 (nM) THP-1-R232
T3 construct: host or cells: THP1-Dual KI-hSTING-R232 (from THP1-Dual KO-STING)

hSTING WT = hSTING WT (Homo sapiens, UniProt Q86WV6); test: Surface plasmon resonance, hSTING WT; format: binding; settings: read-out: hSTING WT SPR (Kd)
NCI-H292 cells = test: Immunogenic cell death markers (HMGB1 release, surface calreticulin); format: cell-based, human; settings: 48 hours
Protocol: Immunogenic cell death elicited by the TROP2 ADC, iSAC, and exatecan were measured by cell surface translocate of calreticulin and release of HMGB1 in the cell culture supernatant. Briefly, TROP2 positive cell line NCI-H292 were seeded into a 96-well flat bottom plate 4 hours prior to the initialization of the assay. Test articles were formulated at a 2× starting concentration in cell culture medium, and samples were serial diluted (1:3) under sterile conditions and added onto the cells in duplicates. After incubation at 37° C. in a CO2 incubator for 48 hours, the cell supernatant was collected for measuring HMGB1 and the adherent cells were collected for calreticulin expression on the cell surface.
HMGB1 released in the supernatant was assessed via sandwich ELISA using mouse anti-human HMGB1 clone 2F6 (Sigma-Aldrich) as the capture, polyclonal rabbit anti-human HMGB1 (Abcam) as secondary, and polyclonal goat anti-rabbit IgG HRP as the detection antibody. The HMGB1 concentrations in the cell culture medium were calculated based a standard curve built on commercially available recombinant human HMGB1 (R&D Systems).
NCI-H292 cells were detached using Accutase (Innovative Cell Technologies) and viability was accessed using a 1:500 dilution of Zombie NIR viability dye. […] Surface calreticulin measures on the live cells were gathered using an Attune NXT Flow Cytometer (ThermoFisher Scientific) to obtain median fluorescence intensity values. All data were fitted with non-linear regression analysis, using log(agonist) vs. response, variable slope, 4 parameter fit equation using GraphPad Prism.

hSTING AQ = hSTING AQ (Homo sapiens, UniProt Q86WV6, G230A/H232R/R293Q); test: Surface plasmon resonance, hSTING AQ; format: binding; settings: read-out: hSTING AQ SPR (Kd)
hSTING H232 [3] = target: T2, hSTING H232; test: Surface plasmon resonance, hSTING H232; format: binding; settings: read-out: hSTING H232 SPR (Kd)

T2 sequence (Q86WV6 whole entry): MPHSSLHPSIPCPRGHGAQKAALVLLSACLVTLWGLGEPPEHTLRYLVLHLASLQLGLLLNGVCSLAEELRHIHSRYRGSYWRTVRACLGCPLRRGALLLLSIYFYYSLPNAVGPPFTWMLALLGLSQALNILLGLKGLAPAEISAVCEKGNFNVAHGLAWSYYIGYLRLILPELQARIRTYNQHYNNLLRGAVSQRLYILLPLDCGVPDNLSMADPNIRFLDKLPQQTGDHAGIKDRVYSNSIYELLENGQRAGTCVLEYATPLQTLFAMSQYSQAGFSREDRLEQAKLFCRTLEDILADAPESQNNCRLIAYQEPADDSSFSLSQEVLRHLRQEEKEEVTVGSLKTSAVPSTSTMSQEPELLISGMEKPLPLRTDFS
T1 sequence (Q86WV6 whole entry R71H/G230A/H232R/R293Q): as the sequence (Q86WV6 whole entry) above, with R71H, G230A, H232R, R293Q counted along it
hSTING WT, sequence (Q86WV6 whole entry H232R): as the sequence (Q86WV6 whole entry) above, with H232R counted along it
T3 sequence (Q86WV6 whole entry H232R): as the sequence (Q86WV6 whole entry) above, with H232R counted along it
hSTING AQ, sequence (Q86WV6 whole entry G230A/H232R/R293Q): as the sequence (Q86WV6 whole entry) above, with G230A, H232R, R293Q counted along it

Compound: CCn1nc(C)cc1C(=O)Nc1nc2cc(C(N)=O)cc(OC)c2n1C/C=C/Cn1c(NC(=O)c2cc(C)nn2CC)nc2cc(C(N)=O)cc(OCCCN3CCC(c4nnc5n4CCNC5)CC3)c21 [Compound 4, 1-[(E)-4-[5-carbamoyl-2-[(2-ethyl-5-methyl-pyrazole-3-carbonyl)amino]-7-[3-[4-(5,6,7,8-tetrahydro-[1,2,4]triazolo[4,3-a]pyrazin-3-yl)-1-piperidyl]propoxy]benzimidazol-1-yl]but-2-enyl]-2-[(2-ethyl-5-methyl-pyrazole-3-carbonyl)amino]-7-methoxy-benzimidazole-5-carboxamide; 2,2,2-trifluoroacetic acid]
- IL-6 Release Span [1]: >8000 pg/mL
- IP-10 Release Span [1]: >4000 pg/mL
- EC50 ([1]; read-out: IL-6 Release EC50): > 100 nM
- EC50 ([1]; read-out: IP-10 Release EC50): > 100 nM
- EC50 (hSTING-HAQ haplotype): 50 to 150 nM
- EC50 (hSTING H232 [2]): > 150 nM
- EC50 (hSTING-R232): 50 to 150 nM
- Kd (hSTING WT): ≤ 20 nM
- HMGB-1 Release Span (NCI-H292 cells): 11 ng/mL
- EC50 (NCI-H292 cells; Homo sapiens, sandwich ELISA, read-out: HMGB-1 Release EC50): 7.45 nM
- Kd (hSTING AQ): ≤ 20 nM
- Kd (hSTING H232 [3]): ≤ 20 nM
